The target of data set [1] is T1, aromatic acyltransferase purified from gentian petals (Gentiana triflora, UniProt Q9ZWR8).
T1 construct: an enzyme naturally occurring in gentian petals also has both activities; from tissue; host or cells: Gentiana petals
T1 sequence (Q9ZWR8 1-469): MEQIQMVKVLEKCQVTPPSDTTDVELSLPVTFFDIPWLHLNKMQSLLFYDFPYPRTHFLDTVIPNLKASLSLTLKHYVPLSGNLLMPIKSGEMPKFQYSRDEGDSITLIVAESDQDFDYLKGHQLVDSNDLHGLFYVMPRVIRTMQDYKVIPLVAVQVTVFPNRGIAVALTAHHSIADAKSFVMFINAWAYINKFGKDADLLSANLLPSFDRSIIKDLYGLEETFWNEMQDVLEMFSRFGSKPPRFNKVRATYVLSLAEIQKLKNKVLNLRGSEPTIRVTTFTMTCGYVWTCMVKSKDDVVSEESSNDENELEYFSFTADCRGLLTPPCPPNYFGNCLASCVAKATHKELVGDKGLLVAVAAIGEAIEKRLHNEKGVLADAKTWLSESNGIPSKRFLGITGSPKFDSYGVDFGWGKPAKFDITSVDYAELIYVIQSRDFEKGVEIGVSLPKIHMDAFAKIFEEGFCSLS
Briefly: Activity of aromatic acyltransferase purified from gentian petals (active fraction adsorbed to Dyematrix column Red). As to conditions: as in Example 2. In kind it is biochemical. From the text: The recombinant protein obtained by expressing a gentian cDNA of an aromatic acyltransferase in E. coli turned out to have an activity of transferring aromatic acyl groups to glucoses at the 5 and the 3′ position of a anthocyanin (Example 2). In order to confirm that an enzyme naturally occurring in gentian petals also has both activities of the 5-aromatic acyltransferase and the 3′-aromatic acyl transferase, this enzyme was purified from gentian petals. In a series of purification, as described in Example 2, each eluted fraction of column chromatography was measured for 5-aromatic acyltransferase activity with DEL 3G-5G as a substrate and for 3′-aromatic acyltransferase activity with DEL 3G-5G-3′G as a substrate.
According to a report by Fujiwara et al. (Fujiwara et al., Eur. J. Biochem. 249: 45, 1997) in which a gentian 5-aromatic acyltransferase was purified, 40-70% ammonium sulfate-saturated fraction was obtained from extract of approximately 100 g of Gentiana petals. This fraction was dialyzed with Sephadex G-25 (Pharmacia) equilibrated with 20 mM Tris-HCl (pH 7.0) containing 10 μM p-aminophenylmethanesulfonyl fluoride (APMSF) and 1 mM DTT (hereinafter referred to as the Tris buffer), then it was loaded to MONO Q (Pharmacia) equilibrated with the Tris buffer. […]
The active fractions were loaded to HiTrap Blue (Pharmacia) and extensively washed in the Tris buffer, and then the adsorbed fraction was eluted with a Tris buffer containing 0.9 M NaCl. […] When the eluted protein was subject to SDS-PAGE, only a single band was detected at molecular weight of 52 kDa which is an estimated molecular weight for an anthocyanin 5-acyltransferase.
In a series of purifications, each eluted fraction of column chromatography was measured for the 5-aromatic acyltransferase activity with DEL 3G-5G as a substrate and for the 5,3′-aromatic acyltransferase activity with DEL 3G-5G-3′G as a substrate, and the fractions with the highest activity in both acyltransferase reactions were completely identical.

Data set [2] concerns the target T2, recombinant acyltransferase derived from Gentiana triflora expressed in E. coli (Gentiana triflora, UniProt Q9ZWR8).
T2 construct: a fragment containing the coding region of the acyltransferase and the 3′-untranslated region was subcloned to the NcoI/HindIII site; made in house; host or cells: E. coli JM109 (pQE8, derived from pQE60)
T2 sequence (Q9ZWR8 1-469): T1 sequence (Q9ZWR8 1-469)
Kind of data set: Measurement of activity of recombinant acyltransferase (HPLC analysis of reaction products). As to conditions: for amount of product formed in time course of the reaction: 25-fold diluted enzyme, DEL 3G-5G-3′G 50, 100 or 200 μM as substrate, 2.5-20 minutes. In kind it is biochemical. The protocol:
The enzymatic activity of the recombinant enzyme obtained in Example 1 was measured with 3 types of delphinidin derivatives (delphinidin 3,5,3′-triglucoside (DEL 3G-5G-3′G), delphinidin 3-glucosyl-5-caffeoylglucosyl-3′-glucoside (DEL 3G-5CafG-3′G), delphinidin 3-glucosyl-5-glucosyl-3′-caffeoylglucoside (DEL 3G-5G-3′CafG)) shown in FIG. 1 and FIG. 2 as substrates. The reaction mixture contained 100 mM potassium phosphate buffer (pH 8.5), 0.2 mM caffeoyl-CoA, […] each of the above substrates and 5 μl of the enzyme solution in a total volume of 50 μl, and the reaction was carried out at 30° C. for 15 minutes. An equal volume of 90% acetonitrile solution containing 0.1% trifluoroacetic acid (TFA) was added to the reaction mixture to stop the reaction.
In order to analyze time course changes of reaction products, 5 μl of a 25-fold diluted enzyme solution and each of 50 μM, 100 μM or 200 μM of DEL 3G-5G-3′G were used as a substrate, and the reaction was stopped at 2.5, 5, 10, and 20 minutes later to analyze the products. The reaction products were analyzed with a reverse phase high performance liquid chromatography (HPLC) using a DE-41 column (4.6×250 mm, Shodex). Samples were eluted with an liner gradient of 20-50% of acetonitrile containing 0.5% TFA at 0.6 ml/min for 15 minutes, and then isoclatic elution at 0.6 ml/min for 10 minutes, and detected with SPD-M10A (SHIMAZU Corporation) at a wavelength of 250-600 nm. The HPLC elution time and absorption spectra of products were compared with those of authentic samples to identify the structure of products.

For data set [3] the following is noted: among four delphinidin glucosides, cited from earlier work.
Data set [4] in a line: Flower color simulation: purified pigment in juice squeezed from rose petals (cv. Medeo). Type of data set: physicochemical. The note with it: Medeo squeezed juice (petal pH 4.38), diluted 4-fold; among five purified pigments. The protocol:
In order to simulate the flower color when the gene for gentian anthocyanin 5,3′-acyltransferase was introduced into roses and DEL 3G-5CafG-3′CafG was accumulated in rose petals, the color development of a purified pigment suspended in juice squeezed form rose petals (cv. Medeo) was measured. As for purified pigments, DEL 3G-5CafG-3′CafG, and as a comparative control, DEL 3G-5G, cyanidin 3,5-diglucoside (CYA 3G-5G), pelargonidin 3,5-diglucoside (PEL 3G-5G) and malvidin 3,5-diglucoside (MAL 3G-5G) were used. About 20 g of Medeo petals frozen at −80° C. for more than one hour were squeezed by a garlic squeezer for household use, and centrifuged at 1000 rpm for 1 minute to remove the debris of the petals, and the supernatant was prepared as the squeezed juice.
Twenty μl of 50 mM DMSO solution of purified pigment was added to 1 ml of the squeezed juice, and kept for 10 minutes, and the absorption and transmittance spectra at 380-780 nm were measured with a spectrophotometer UV-2500PC(SHIMADZU Corporation). The transmittance spectrum values were converted into CIE L*a*b* color system (JISZ8729). […] However, since the absorbance for 3G-5CafG-3′CafG was too high, it was diluted 4-fold prior to measurement.

Data set [5] concerns the target T3, 5,3′-aromatic acyltransferase from Gentiana triflora expressed in nierembergia (Gentiana triflora, UniProt Q9ZWR8).
T3 construct: expressed in transfected cells; host or cells: petals of transgenic nierembergia (binary construct pSPB1536, 35S promoter)
T3 sequence (Q9ZWR8 1-469): T1 sequence (Q9ZWR8 1-469)
Briefly: In vitro 5,3′-aromatic acyltransferase activity of crude enzyme from petals of nierembergia transformants. Type of data set: biochemical. The note with it: in a manner similar to Example 2. The text has this:
On the other hand, a crude enzyme was extracted from the petals of the transformants where transcription of all three genes were confirmed, in a manner as described in the report by Fujiwara et al. (Fujiwara et al., (1997) Eur. J. Biochem. 249: 45-51). […] On the other hand, when the crude enzyme from a non-recombinant nierembergia was used as the control, gentiodelphin was not detected.

Where [6] appears, read: 250 mM substrate, 0.2 mM caffeoyl-CoA, pH 8.5, 30° C., 15 minutes, undiluted enzyme.

As to “delphinidin 3-glucosyl-5-glucosyl-3′-caffeoylglucoside [DEL 3G-5G-3′CafG]”, the “reaction of the enzyme purified from gentian petals with the substrate” value (“reaction of the enzyme purified” below) in data set [1] is listed as “reacted”. Also, the “substrate converted to DEL 3G-5CafG-3′CafG” value in data set [2] (setting [6]) came to 95.2%. Moreover, the “amount of product formed in time course of the reaction” value (“amount of product formed” for short) in data set [2] is reported as “barely detected”.

Regarding `O=C(/C=C/c1ccc(O)c(O)c1)OC[C@H]1O[C@@H](Oc2cc(-c3[o+]c4cc(O)cc(O[C@@H]5O[C@H](COC(=O)/C=C/c6ccc(O)c(O)c6)[C@@H](O)[C@H](O)[C@H]5O)c4cc3O[C@@H]3O[C@H](CO)[C@@H](O)[C@H](O)[C@H]3O)cc(O)c2O)[C@H](O)[C@@H](O)[C@@H]1O` [DEL 3G-5CafG-3′CafG, gentiodelphin], in data set [3], the “absorbance maximum (relative wavelength)” value is listed as “longest wavelength” and the “blueness (relative)” value is given as “most blueish”. In addition, the “relative stability (fading)” value in data set [3] (aqueous solution of pH 6.5) was “most stable and refractory to fading”. For the same compound, in data set [2], the “amount of product formed” value is reported as “increased according to the reaction time”. Further, the “maximum absorption spectrum (relative)” value in data set [4] is reported as “largest maximum absorption spectrum”.

For “delphinidin 3-glucosyl-5-caffeoylglucosyl-3′-glucoside [DEL 3G-5CafG-3′G]”, in data set [1], the “reaction of the enzyme purified” value is reported as “reacted”. Moreover, the “substrate converted to DEL 3G-5CafG-3′CafG” value in data set [2] (setting [6]) is listed as 94.1%. Moreover, the “amount of product formed” value in data set [2] is on record as “increased according to the reaction time”.

Turning to `OC[C@H]1O[C@@H](Oc2cc3c(O[C@@H]4O[C@H](CO)[C@@H](O)[C@H](O)[C@H]4O)cc(O)cc3[o+]c2-c2cc(O)c(O)c(O[C@@H]3O[C@H](CO)[C@@H](O)[C@H](O)[C@H]3O)c2)[C@H](O)[C@@H](O)[C@@H]1O` [DEL 3G-5G-3′G, delphinidin 3,5,3′-triglucoside], the “reaction of the enzyme purified” value in data set [1] is reported as “reacted”. Besides, the “product formation from the substrate by crude enzyme of transgenic nierembergia” value in data set [5] is “formation of gentiodelphin was confirmed”. Also, in data set [2] (setting [6]), the “substrate converted to DEL 3G-5CafG-3′CafG” value is reported as 58.7%, the “substrate converted to DEL 3G-5CafG-3′G (acyl group at the 5 position alone)” value stood at 7.2% and the “substrate converted to DEL 3G-5G-3′CafG (acyl group at the 3′ position alone)” value is listed as no more than 1%.

(Values after patent publication US8053634B2, “Stabilization and blueing of anthocyanin pigments using gene encoding aromatic acyltransferase capable of transferring an aromatic acyl group to the 3′-position of anthocyanin” (Suntory Holdings Limited, priority 2004, dated 2011).)
